Data: patent US9896445B2, “Heterocyclic inhibitors of ERK1 and ERK2 and their use in the treatment of cancer” (Asana Biosciences, LLC, priority 2015, dated 2018)

What was measured:
ERK1 = biological target: T1, ERK1 (Homo sapiens, UniProt P27361); assay: ERK1 HTRF (biochemical) assay
T1 construct: purchased Jubilant Biosys
Procedure: ERK1 and ERK2 HTRF (Biochemical) Assays
These assays employed a homogeneous time resolved fluorescence (HTRF) technique. […] The plate was incubated at room temperature for 60 min with shaking. […] The IC50 values (half maximal inhibitory concentration values) were subsequently determined using a sigmoidal dose-response curve (variable slope) in GraphPad Prism® 5 software.

ERK2 = biological target: T2, ERK2 (Homo sapiens, UniProt P28482); assay: ERK2 HTRF (biochemical) assay
T2 construct: purchased Jubilant Biosys
Outline: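 Readout was time-resolved FRET between europium anti-phospho-MBP and streptavidin-APC after a 60-min room-temperature kinase step. That step used ERK2 (25 nM in enzyme mix), biotinylated MBP peptide (1 uM) and ATP (24 uM) from the substrate mix, in pH 7.5 Tris buffer.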

T1 sequence (P27361 whole entry): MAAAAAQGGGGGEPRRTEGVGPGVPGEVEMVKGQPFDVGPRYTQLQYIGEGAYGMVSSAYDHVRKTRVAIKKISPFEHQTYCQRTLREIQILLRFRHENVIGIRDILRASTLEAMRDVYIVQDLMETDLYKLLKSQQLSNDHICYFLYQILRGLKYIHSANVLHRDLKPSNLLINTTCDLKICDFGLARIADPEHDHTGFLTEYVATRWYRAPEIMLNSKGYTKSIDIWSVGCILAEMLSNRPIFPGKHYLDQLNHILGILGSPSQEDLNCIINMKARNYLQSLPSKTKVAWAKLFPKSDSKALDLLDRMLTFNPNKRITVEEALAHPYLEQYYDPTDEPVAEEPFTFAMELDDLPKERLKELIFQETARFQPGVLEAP
T2 sequence (P28482 whole entry): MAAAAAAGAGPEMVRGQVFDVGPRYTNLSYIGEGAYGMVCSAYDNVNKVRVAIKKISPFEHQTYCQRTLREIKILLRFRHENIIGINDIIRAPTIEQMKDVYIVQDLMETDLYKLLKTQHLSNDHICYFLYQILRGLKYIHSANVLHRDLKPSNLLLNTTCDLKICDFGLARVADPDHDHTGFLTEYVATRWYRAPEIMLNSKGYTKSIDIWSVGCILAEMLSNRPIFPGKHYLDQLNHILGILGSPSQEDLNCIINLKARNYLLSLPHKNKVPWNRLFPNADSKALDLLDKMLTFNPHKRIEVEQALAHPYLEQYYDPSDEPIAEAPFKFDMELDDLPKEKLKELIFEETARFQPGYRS

Structure (SMILES)	IC50 (ERK1; HTRF)	IC50 (ERK2; HTRF)	IC50 (ERK1; HTRF biochemical assay)	IC50 (ERK2; HTRF biochemical assay)
O=C(N[C@H](CO)c1cccc(Cl)c1)c1cnn(-c2ccnc(Nc3ccccc3)n2)c1 [Compound 53, (S)-N-(1-(3-chlorophenyl)-2-hydroxyethyl)-1-(2-(phenylamino)pyrimidin-4-yl)-1H-pyrazole-4-carboxamide]	0.1 to 0.5 µM	0.1 to 0.5 µM	–	–
Cc1cnc(Nc2ccc3c(c2)CCO3)nc1-n1ccc(C(=O)NC(CO)c2ccccc2)c1 (stereo not drawn) [Compound 138, 1-(2-((2,3-dihydro-benzofuran-5-yl)amino)-5-methylpyrimidin-4-yl)-N-(2-hydroxy-1-phenylethyl)-1H-pyrrole-3-carboxamide]	< 0.05 µM	≤ 0.05 µM	–	–
Cc1cnc(Nc2ccc(F)cc2Cl)cc1-n1ccc(C(=O)NC(CO)c2cccc(Cl)c2)c1 (stereo not drawn) [Compound 91, 1-(2-((2-chloro-4-fluorophenyl)amino)-5-methylpyridin-4-yl)-N-(1-(3-chlorophenyl)-2-hydroxyethyl)-1H-pyrrole-3-carboxamide]	< 0.05 µM	≤ 0.05 µM	–	–
Cc1cnc(Nc2ccc3c(c2)OCCO3)nc1-n1ccc(C(=O)NC(CO)c2cccc(Cl)c2)c1 (stereo not drawn) [Compound 139, N-(1-(3-chloro-phenyl)-2-hydroxyethyl)-1-(2-((2,3-dihydro-benzo[b][1,4]dioxin-6-yl)amino)-5-methylpyrimidin-4-yl)-1H-pyrrole-3-carboxamide]	< 0.05 µM	≤ 0.05 µM	–	–
Cc1cnc(NC2CCOCC2)nc1-n1cnc(C(=O)N[C@@H](CN)c2cc(F)cc(Cl)c2)c1 [Example 276, (R)-N-(2-amino-1-(3-chloro-5-fluoro-phenyl)ethyl)-1-(5-methyl-2-((tetrahydro-2H-pyran-4-yl)amino)-pyrimidin-4-yl)-1H-imidazole-4-carboxamide]	< 0.05 µM	≤ 0.05 µM	–	–
Cc1cn(-c2nc(Nc3ccc(F)cc3)ncc2C)cc1C(=O)NC(CO)c1ccccc1 (stereo not drawn) [Compound 108, 1-(2-((4-fluoro-phenyl)amino)-5-methylpyrimidin-4-yl)-N-(2-hydroxy-1-phenylethyl)-4-methyl-1H-pyrrole-3-carboxamide]	< 0.05 µM	≤ 0.05 µM	–	–
CCC(COC)Nc1ncc(C)c(-n2ccc(C(=O)NC(CO)c3cccc(Cl)c3)c2)n1 (stereo not drawn) [Compound 127, N-(1-(3-chloro-phenyl)-2-hydroxy-ethyl)-1-(2-((1-methoxybutan-2-yl)amino)-5-methylpyrimidin-4-yl)-1H-pyrrole-3-carboxamide]	< 0.05 µM	≤ 0.05 µM	–	–
Cc1cnc(Nc2ccc(F)cc2)nc1-n1ccc(C(=O)N[C@H](CO)c2ccc(F)c(Cl)c2)c1 [Compound 125, (S)-N-(1-(3-chloro-4-fluorophenyl)-2-hydroxyethyl)-1-(2-((4-fluorophenyl)-amino)-5-methyl-pyrimidin-4-yl)-1H-pyrrole-3-carboxamide]	< 0.05 µM	≤ 0.05 µM	–	–
O=C(NC(CO)c1ccccc1)c1ccn(-c2ccnc(Nc3ccc(F)cc3)c2)c1 (stereo not drawn) [Compound 84, 1-(2-((4-fluoro-phenyl)amino)pyridin-4-yl)-N-(2-hydroxy-1-phenyl-ethyl)-1H-pyrrole-3-carboxamide]	< 0.05 µM	≤ 0.05 µM	–	–
Cc1cnc(NC2CCOCC2)nc1-n1cnc(C(=O)N[C@@H](CO)c2cccc(Cl)c2)c1 [Compound 217, (R)-N-(1-(3-chlorophenyl)-2-hydroxyethyl)-1-(5-methyl-2-((tetrahydro-2H-pyran-4-yl)amino)-pyrimidin-4-yl)-1H-imidazole-4-carboxamide]	0.1 to 0.5 µM	0.1 to 0.5 µM	–	–
O=C(NC(CO)c1ccccc1)c1ccn(-c2ccnc(Nc3ccc4c(c3)OCO4)c2)c1 (stereo not drawn) [Compound 76, 1-(2-(benzo[d][1,3]dioxol-5-ylamino)pyridin-4-yl)-N-(2-hydroxy-1-phenylethyl)-1H-pyrrole-3-carboxamide]	< 0.05 µM	≤ 0.05 µM	–	–
Cc1cnc(NC2CC2)nc1-n1cc(C(=O)N[C@H](CO)c2cccc(Cl)c2)cn1 [Compound 39, (S)-N-(1-(3-chlorophenyl)-2-hydroxyethyl)-1-(2-(cyclopropylamino)-5-methylpyrimidin-4-yl)-1H-pyrazole-4-carboxamide]	0.05 to 0.1 µM	≤ 0.05 µM	–	–
CC[C@H](CO)Nc1cc(-n2cnc(C(=O)NC(CO)c3cccc(Cl)c3)c2)c(Cl)cn1 (stereo partly drawn) [Compound 168, 1-(5-chloro-2-(((R)-1-hydroxybutan-2-yl)amino)pyridin-4-yl)-N-(1-(3-chlorophenyl)-2-hydroxyethyl)-1H-imidazole-4-carboxamide]	< 0.05 µM	0.05 to 0.1 µM	–	–
CC[C@@H](CO)Nc1ncc(C)c(-n2ccc(C(=O)N[C@H](CO)c3ccc(F)c(Cl)c3)c2)n1 [Compound 133, N-((S)-1-(3-chloro-4-fluorophenyl)-2-hydroxyethyl)-1-(2-(((S)-1-hydroxy-butan-2-yl)amino)-5-methylpyrimidin-4-yl)-1H-pyrrole-3-carboxamide]	< 0.05 µM	≤ 0.05 µM	–	–
Cc1cnc(NCc2cccnc2)cc1-n1ccc(C(=O)NC(CO)c2ccc(F)c(Cl)c2)c1 (stereo not drawn) [Compound 193, N-(1-(3-chloro-4-fluorophenyl)-2-hydroxyethyl)-1-(5-methyl-2-((pyridin-3-ylmethyl)-amino)pyridin-4-yl)-1H-pyrrole-3-carboxamide]	0.1 to 0.5 µM	0.1 to 0.5 µM	–	–
Cc1cnc(NC2(CO)CC2)nc1-n1ccc(C(=O)NC(CO)c2ccc(F)c(Cl)c2)c1 (stereo not drawn) [Compound 203, N-(1-(3-chloro-4-fluorophenyl)-2-hydroxyethyl)-1-(2-((1-(hydroxy-methyl)cyclopropyl)amino)-5-methyl-pyrimidin-4-yl)-1H-pyrrole-3-carboxamide]	0.1 to 0.5 µM	0.1 to 0.5 µM	–	–

The remaining lines, values ahead:

IC50 (ERK1; HTRF)	IC50 (ERK2; HTRF)	IC50 (ERK1; HTRF biochemical assay)	IC50 (ERK2; HTRF biochemical assay)	Structure (SMILES)
< 0.05 µM	≤ 0.05 µM	–	–	Cc1cnc(Nc2ccc3c(c2)OCO3)nc1-n1cnc(C(=O)N[C@H](CN)c2cccc(Cl)c2)c1 [Example 266, (S)-N-(2-amino-1-(3-chlorophenyl)-ethyl)-1-(2-(benzo[d][1,3]dioxol-5-ylamino)-5-methylpyrimidin-4-yl)-1H-imidazole-4-carboxamide]
< 0.05 µM	≤ 0.05 µM	–	–	Cc1cnc(Nc2ccnn2C)nc1-n1cnc(C(=O)N[C@H](CN)c2cccc(Cl)c2)c1 [Example 280, (S)-N-(2-amino-1-(3-chlorophenyl)-ethyl)-1-(5-methyl-2-((1-methyl-1H-pyrazol-5-yl)amino)-pyrimidin-4-yl)-1H-imidazole-4-carboxamide]
–	–	< 0.05 µM	≤ 0.05 µM	Cc1cnc(NC2CCOCC2)nc1-n1cnc(C(=O)NCc2ccc(Cl)c(CO)c2)c1 [Example 330, N-(4-chloro-3-(hydroxymethyl)-benzyl)-1-(5-methyl-2-((tetrahydro-2H-pyran-4-yl)amino)-pyrimidin-4-yl)-1H-imidazole-4-carboxamide]
–	–	< 0.05 µM	≤ 0.05 µM	Cc1cnc(Nc2ccc(F)cc2Cl)nc1-n1cnc(C(=O)NCc2cccc(Cl)c2CO)c1 [Example 329, N-(3-chloro-2-(hydroxymethyl)-benzyl)-1-(2-((2-chloro-4-fluoro-phenyl)amino)-5-methylpyrimidin-4-yl)-1H-imidazole-4-carboxamide]
–	–	< 0.05 µM	≤ 0.05 µM	CC(=O)OCc1c(Cl)cccc1CNC(=O)c1cn(-c2nc(NC3CCOCC3)ncc2C)cn1 [Example 340, 2-chloro-6-((1-(5-methyl-2-((tetrahydro-2H-pyran-4-yl)amino)-pyrimidin-4-yl)-1H-imidazole-4-carboxamido)-methyl)benzyl acetate]
–	–	< 0.05 µM	≤ 0.05 µM	Cc1cnc(N[C@H]2CCOC2)nc1-n1cnc(C(=O)NCc2cccc(Cl)c2)c1 [Example 318, (S)-N-(3-chloro-benzyl)-1-(5-methyl-2-((tetrahydrofuran-3-yl)amino)-pyrimidin-4-yl)-1H-imidazole-4-carboxamide]
–	–	< 0.05 µM	≤ 0.05 µM	Cc1cnc(NC2CCOCC2)nc1-n1cnc(C(=O)NCc2cccc(Cl)c2F)c1 [Example 309, N-(3-chloro-2-fluorobenzyl)-1-(5-methyl-2-((tetrahydro-2H-pyran-4-yl)amino)-pyrimidin-4-yl)-1H-imidazole-4-carboxamide]
< 0.05 µM	≤ 0.05 µM	–	–	Cc1cnc(N[C@@H]2CCOC2)nc1-n1cnc(C(=O)N[C@H](CN)c2cccc(Cl)c2)c1 [Example 264, N-((S)-2-amino-1-(3-chlorophenyl)-ethyl)-1-(5-methyl-2-(((R)-tetrahydrofuran-3-yl)amino)pyrimidin-4-yl)-1H-imidazole-4-carboxamide]
< 0.05 µM	≤ 0.05 µM	–	–	Cc1cnc(NC2CCOCC2)nc1-n1cnc(C(=O)NC(CO)c2ccsc2)c1 (stereo not drawn) [Compound 234, N-(2-hydroxy-1-(thiophen-3-yl)ethyl)-1-(5-methyl-2-((tetrahydro-2H-pyran-4-yl)amino)-pyrimidin-4-yl)-1H-imidazole-4-carboxamide]
–	–	< 0.05 µM	≤ 0.05 µM	Cc1cnc(NC2CCOCC2)nc1-n1cnc(C(=O)N[C@H](CNCC2CC2)c2cccc(Cl)c2)c1 [Example 339, 1-[5-Methyl-2-(tetrahydro-pyran-4-ylamino)-pyrimidin-4-yl]-1H-imidazole-4-carboxylic acid [(S)-1-(3-chloro-phenyl)-2-(cyclopropylmethyl-amino)-ethyl]-amide]
–	–	< 0.05 µM	≤ 0.05 µM	Cc1cnc(N[C@H]2CCOC2)nc1-n1cnc(C(=O)NCc2cccc(CO)c2Cl)c1 [Example 338, (S)-N-(2-chloro-3-(hydroxymethyl)-benzyl)-1-(5-methyl-2-((tetrahydrofuran-3-yl)amino)-pyrimidin-4-yl)-1H-imidazole-4-carboxamide]
